Results taken from patent publication US8648081B2 (Eli Lilly and Company, priority 2011, dated 2014).

These molecules were tested on Lone star tick larvae (Amblyomma americanum) (assay: In Vitro Larval Immersion Microassay (LIM)). Details: read-out: % Efficacy (percent larval mortality).
Method: In Vitro Larval Immersion Microassay (LIM)
The larval immersion microassay may be conducted as described in White, et al., J. Med. Entomol. […] Briefly, experimental test articles are formulated in dimethylsulfoxide (DMSO) to prepare a stock solution at a concentration of 10 mM. […] Approximately 30-50 Lone star tick larvae (Amblyomma americanum) are submerged into each well containing experimental test articles. After a 30 minute immersion period, larvae are removed with a wide-bore pipette tip in 0.05 ml of fluid, dispensed into a commercial paper tissue biopsy bag which is sealed at the top with a plastic dialysis clip, inverted and allowed to air dry for 60 minutes. Bags containing larvae are then incubated at approximately 27 degrees Celsius and >90% relative humidity. After 24 hours, bags are opened, live and dead larvae are counted and percent larval mortality is calculated as follows: % Efficacy=(# dead larvae)/(# total larvae)×100.
O=C(N[C@@H]1CCNC1=O)c1sc(C2=NOC(c3cc(Cl)c(F)c(Cl)c3)(C(F)(F)F)C2)c2c1CCC2 (stereo partly drawn) [Example 58, 3-(5-(3,5-dichloro-4-fluorophenyl)-5-(trifluoromethyl)-4,5-dihydroisoxazol-3-yl)-N-((R)-2-oxopyrrolidin-3-yl)-5,6-dihydro-4H-cyclopenta[c] thiophene-1-carboxamide] gave a mortality at 300 µM of no less than 80%.
Molecule O=C(NC1CCS(=O)(=O)CC1)c1sc(C2=NOC(c3cc(Cl)c(F)c(Cl)c3)(C(F)(F)F)C2)c2c1CCCC2 (stereo not shown) [Example 80, 3-[5-(3,5-Dichloro-4-fluoro-phenyl)-5-trifluoromethyl-4,5-dihydro-isoxazol-3-yl]-4,5,6,7-tetrahydro-benzo[c] thiophene-1-carboxylic acid (1,1-dioxo-hexahydro-thiopyran-4-yl)-amide] has a mortality at 300 µM of no less than 80%.
With O=C(NCC1CCCO1)c1sc(C2=NOC(c3cc(Cl)cc(Cl)c3)(C(F)(F)F)C2)c2c1CCCC2 (stereo not shown) [Example 64, 3-(5-(3,5-dichloro-phenyl)-5-(trifluoro-methyl)-4,5-dihydro-isoxazol-3-yl)-N-((tetrahydrofuran-2-yl)methyl)-4,5,6,7-tetrahydro-benzo[c]thiophene-1-carboxamide] the mortality at 300 µM was no less than 80%.
Work on O=C(NC1CCOCC1)c1sc(C2=NOC(c3cc(Cl)cc(Cl)c3)(C(F)(F)F)C2)c2c1CCCC2 (stereo not shown) [Example 71, 3-(5-(3,5-dichloro-phenyl)-5-(trifluoro-methyl)-4,5-dihydro-isoxazol-3-yl)-N-(tetrahydro-2H-pyran-4-yl)-4,5,6,7-tetrahydrobenzo [c]thiophene-1-carboxamide] yielded a mortality at 300 µM of no less than 80%.
Molecule O=C(CNC(=O)c1sc(C2=NOC(c3cc(Cl)c(Cl)c(Cl)c3)(C(F)(F)F)C2)c2c1CCC2)NCC(F)(F)F (stereo not shown) [Example 52, N-(2-oxo-2-(2,2,2-trifluoroethylamino)ethyl)-3-(5-(3,4,5-trichlorophenyl)-5-(trifluoromethyl)-4,5-dihydroisoxazol-3-yl)-5,6-dihydro-4H-cyclopenta[c] thiophene-1-carboxamide] has a mortality at 300 µM of no less than 80%.
Molecule C#CCNC(=O)CNC(=O)c1sc(C2=NOC(c3cc(Cl)c(Cl)c(Cl)c3)(C(F)(F)F)C2)c2c1CCC2 (stereo not drawn) [Example 55, N-(2-oxo-2-(prop-2-ynylamino)ethyl)-3-(5-(3,4,5-trichlorophenyl)-5-(trifluoromethyl)-4,5-dihydroisoxazol-3-yl)-5,6-dihydro-4H-cyclo-penta[c]thiophene-l-carboxamide] has a mortality at 300 µM of no less than 80%.
O=C(NC1CCS(=O)(=O)CC1)c1sc(C2=NOC(c3cc(Cl)c(Cl)c(Cl)c3)(C(F)(F)F)C2)c2c1CCCC2 (stereo not shown) [Example 75, 3-[5-(3,4,5-Trichloro-phenyl)-5-trifluoro-methyl-4,5-dihydro-isoxazol-3-yl]-4,5,6,7-tetrahydro-benzo[c]thiophene-1-carboxylic acid (1,1-dioxo-hexahydro-thiopyran-4-yl)-amide] gave a mortality at 300 µM of no less than 80%.
O=C(NC1CS(=O)(=O)C1)c1sc(C2=NOC(c3cc(Cl)cc(Cl)c3)(C(F)(F)F)C2)c2c1CCCC2 (stereo not shown) [Example 37, 3-[5-(3,5-Dichloro-phenyl)-5-trifluoro-methyl-4,5-dihydro-isoxazol-3-yl]-4,5,6,7-tetrahydro-benzo[c] thiophene-1-carboxylic acid (1,1-dioxo-thietan-3-yl)-amide] gave a mortality at 300 µM of no less than 80%.
Molecule O=C(NCCC(F)(F)F)c1sc(C2=NOC(c3cc(Cl)cc(Cl)c3)(C(F)(F)F)C2)c2c1CCCC2 (stereo not shown) [Example 66, 3-(5-(3,5-dichloro-phenyl)-5-(trifluoro-methyl)-4,5-dihydro-isoxazol-3-yl)-N-(3,3,3-trifluoropropyl)-4,5,6,7-tetrahydrobenzo[c] thiophene-1-carboxamide] has a mortality at 300 µM of no less than 80%.
With O=C(NC1CS(=O)(=O)C1)c1sc(C2=NOC(c3cc(Cl)c(F)c(Cl)c3)(C(F)(F)F)C2)c2c1CCCC2 (stereo not shown) [Example 79, 3-[5-(3,5-Dichloro-4-fluoro-phenyl)-5-trifluoromethyl-4,5-dihydro-isoxazol-3-yl]-4,5,6,7-tetrahydro-benzo[c]thiophene-1-carboxylic acid (1,1-dioxo-thietan-3-yl)-amide] the mortality at 300 µM was no less than 80%.
In the case of N#CCNC(=O)CNC(=O)c1sc(C2=NOC(c3cc(Cl)c(Cl)c(Cl)c3)(C(F)(F)F)C2)c2c1CCCC2 (stereo not shown) [Example 46, N-(2-(cyanomethyl-amino)-2-oxoethyl)-3-(5-(3,4,5-trichloro-phenyl)-5-(trifluoro-methyl)-4,5-dihydro-isoxazol-3-yl)-4,5,6,7-tetrahydrobenzo [c]thiophene-1-carboxamide], the mortality at 300 µM is reported as no less than 80%.
For FC(F)(F)C1(c2cc(Cl)cc(Cl)c2)CC(c2cc3cc(Cl)ccc3s2)=NO1 (stereo not shown) [Example 237, 3-(5-chlorobenzo [b]thiophen-2-yl)-5-(3,5-dichloro-phenyl)-5-(trifluoro-methyl)-4,5-dihydroisoxazole], the mortality at 300 µM was no less than 80%.
O=C(CNC(=O)c1sc(C2=NOC(c3cc(Cl)c(F)c(Cl)c3)(C(F)(F)F)C2)c2c1CCCC2)NCC(F)(F)F (stereo not shown) [Example 48, 3-(5-(3,5-dichloro-4-fluorophenyl)-5-(trifluoromethyl)-4,5-dihydroisoxazol-3-yl)-N-(2-oxo-2-(2,2,2-trifluoroethyl-amino)ethyl)-4,5,6,7-tetrahydrobenzo [c]thiophene-1-carboxamide] showed a mortality at 300 µM of no less than 80%.
Work on O=C(Nc1ccc(F)cn1)c1sc(C2=NOC(c3cc(Cl)cc(Cl)c3)(C(F)(F)F)C2)c2c1CCCC2 (stereo not shown) [Example 68, 3-(5-(3,5-dichloro-phenyl)-5-(trifluoro-methyl)-4,5-dihydro-isoxazol-3-yl)-N-(5-fluoropyridin-2-yl)-4,5,6,7-tetrahydro-benzo[c]thiophene-1-carboxamide] yielded a mortality at 300 µM of no less than 80%.
O=C(N[C@@H]1CCNC1=O)c1sc(C2=NOC(c3cc(Cl)c(Cl)c(Cl)c3)(C(F)(F)F)C2)c2c1CCC2 (stereo partly drawn) [Example 53, N-((R)-2-oxopyrrolidin-3-yl)-3-(5-(3,4,5-trichlorophenyl)-5-(trifluoromethyl)-4,5-dihydroisoxazol-3-yl)-5,6-dihydro-4H-cyclopenta[c] thiophene-1-carboxamide] gave a mortality at 300 µM of no less than 80%.
In the case of O=C(CNC(=O)c1sc(C2=NOC(c3cc(Cl)cc(Cl)c3)(C(F)(F)F)C2)c2c1CCC2)NCC(F)(F)F (stereo not shown) [Example 36, 3-(5-(3,5-dichloro-phenyl)-5-(trifluoro-methyl)-4,5-dihydro-isoxazol-3-yl)-N-(2-oxo-2-(2,2,2-trifluoroethylamino)ethyl)-5,6-dihydro-4H-cyclopenta[c] thiophene-1-carboxamide], the mortality at 300 µM is reported as no less than 80%.
Molecule C#CCNC(=O)CNC(=O)c1sc(C2=NO[C@@](c3cc(Cl)c(F)c(Cl)c3)(C(F)(F)F)C2)c2c1CCC2 [Example 249, (S)-3-(5-(3,5-dichloro-4-fluorophenyl)-5-(trifluoromethyl)-4,5-dihydroisoxazol-3-yl)-N-(2-oxo-2-(prop-2-ynylamino)ethyl)-5,6-dihydro-4H-cyclopenta[c]thiophene-1-carboxamide] has a mortality at 300 µM of no less than 80%.
O=C(NC1CCN(CC(F)(F)F)C1=O)c1sc(C2=NOC(c3cc(Cl)c(Cl)c(Cl)c3)(C(F)(F)F)C2)c2c1CCCC2 (stereo not shown) [Example 76, N-(2-oxo-1-(2,2,2-trifluoroethyl)pyrrolidin-3-yl)-3-(5-(3,4,5-trichloro-phenyl)-5-(trifluoro-methyl)-4,5-dihydro-isoxazol-3-yl)-4,5,6,7-tetrahydro-benzo[c]thiophene-1-carboxamide] showed a mortality at 300 µM of no less than 80%.
O=C(CNC(=O)c1sc(C2=NO[C@@](c3cc(Cl)c(F)c(Cl)c3)(C(F)(F)F)C2)c2c1CCC2)NCCF [Example 247, (S)-3-[5-(3,5-Dichloro-4-fluoro-phenyl)-5-trifluoromethyl-4,5-dihydro-isoxazol-3-yl]-5,6-dihydro-4H-cyclopenta[c]thiophene-1-carboxylic acid [(2-fluoro-ethylcarbamoyl)-methyl]-amide] gave a mortality at 300 µM of no less than 80%.
